Literature values, collected in patent US7638678B2, “Animal model for perimenopause and menopause and methods of inducing ovarian failure” (The Arizona Board of Regents, priority 2002, dated 2009).

How the values were obtained:
[1] = test system: ovarian follicles; details: B6C3F1 mice dosed with VCH; cited from earlier work
[2] = i.p. minipumps versus injection; cited from earlier work

Compound | Premature ovarian failure in long term studies [1] | Decrease of the effective dose by continuous administration [2]
C=CC1CC=CCC1 (centres unmarked) [VCH, 4-vinylcyclohexene] | premature ovarian failure occurred within a year | –
endostatin | – | 8-10 fold
